Experimental data from PMC7076710, “Synthesis, Identification, and Structure–Activity Relationship Analysis of GATA4 and NKX2-5 Protein–Protein Interaction Modulators” (Journal of Medicinal Chemistry, 2019).

What was measured:
Assay type in all cases: cell-based
COS-1 cells [1] = experiment: MTT assay (cell viability); conditions: for MTT.1µM / MTT.3µM / MTT.10µM / MTT.30µM: cell viability; for toxicity class in the MTT assay: 24-h exposure, classified at 10 μM
[2] = target: T1, GATA4 transcriptional activity (Mus musculus, UniProt Q08369); experiment: GATA4 luciferase reporter assay (tandem GATA-site reporter, COS-1 cells); conditions: COS-1, luciferase reporter activity relative to control
T1 construct: expressed in transfected cells; host or cells: COS-1

[3] = target: T2, GATA4–NKX2-5 transcriptional synergy (Mus musculus, UniProt P42582+Q08369); experiment: GATA4–NKX2-5 transcriptional synergy luciferase reporter assay (3xNKE reporter, COS-1 cells); conditions: COS-1, luciferase reporter activity relative to control
T2 construct: expressed in transfected cells; host or cells: COS-1

[4] = target: T3, NKX2-5 transcriptional activity (Mus musculus, UniProt P42582); experiment: NKX2-5 luciferase reporter assay (3xNKE reporter, COS-1 cells); conditions: COS-1, luciferase reporter activity relative to control; for activity at 3 µM: read-out: NKX.3µM; for activity at 10 µM: read-out: NKX.10µM
T3 construct: expressed in transfected cells; host or cells: COS-1

COS-1 cells [5] = experiment: LDH assay (necrosis)

T3 sequence (P42582 whole entry): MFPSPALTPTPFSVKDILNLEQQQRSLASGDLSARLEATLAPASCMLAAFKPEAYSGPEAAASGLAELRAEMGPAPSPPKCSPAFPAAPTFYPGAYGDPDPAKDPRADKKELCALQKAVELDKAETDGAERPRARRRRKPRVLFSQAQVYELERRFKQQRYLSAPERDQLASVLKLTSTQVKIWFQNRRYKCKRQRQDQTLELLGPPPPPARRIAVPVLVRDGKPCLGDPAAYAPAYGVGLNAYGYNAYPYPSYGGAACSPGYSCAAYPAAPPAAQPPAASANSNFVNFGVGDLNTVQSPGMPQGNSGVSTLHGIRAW
T1 sequence (Q08369 whole entry): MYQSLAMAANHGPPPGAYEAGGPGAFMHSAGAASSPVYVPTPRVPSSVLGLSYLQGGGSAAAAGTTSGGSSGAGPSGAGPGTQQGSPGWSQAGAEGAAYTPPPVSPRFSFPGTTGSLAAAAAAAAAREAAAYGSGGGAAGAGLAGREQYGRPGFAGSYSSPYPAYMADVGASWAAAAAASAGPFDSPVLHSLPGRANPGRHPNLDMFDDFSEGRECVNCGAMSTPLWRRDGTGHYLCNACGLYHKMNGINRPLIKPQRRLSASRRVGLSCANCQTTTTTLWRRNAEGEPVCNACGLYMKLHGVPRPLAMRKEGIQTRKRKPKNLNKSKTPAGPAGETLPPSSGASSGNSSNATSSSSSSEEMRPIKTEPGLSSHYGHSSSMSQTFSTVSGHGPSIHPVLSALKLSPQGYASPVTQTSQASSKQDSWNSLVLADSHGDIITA
T2 sequence (Q08369 whole entry): as above
T2 sequence (P42582 whole entry): as the sequence (P42582 whole entry) above

activity at 3 µM [2] [%] | activity at 3 µM [3] [%] | activity at 3 µM [4] [%] | activity at 10 µM [3] [%] | activity at 10 µM [4] [%] | activity at 10 µM [2] [%] | Structure (SMILES) | MTT.1µM (COS-1 cells [1]) | MTT.3µM (COS-1 cells [1]) | MTT.10µM (COS-1 cells [1]) | MTT.30µM (COS-1 cells [1]) | LDH.1µM (COS-1 cells [5]) | LDH.3µM (COS-1 cells [5]) | LDH.10µM (COS-1 cells [5]) | LDH.30µM (COS-1 cells [5]) | toxicity class in the MTT assay (COS-1 cells [1])
95.2 | 65.4 | 56.3 |  |  |  | CCN(CC)c1ccc(NC(=O)c2cnoc2-c2ccccc2)cc1 [Compound 47d] | 107.01 | 95.86 | 90.87 | 93.95 | 3.03 | 0.88 | -0.44 | 0.42 | 
74.4 | 61.5 | 55.2 |  |  |  | CCN(CC)c1ccc(NC(=O)c2csc(C)c2-c2ccccc2)cc1 [Compound 47t] | 106.87 | 104.76 | 104.28 | 99.24 | 0.5 | 1.08 | 0.5 | 2.38 | nontoxic (nontoxic compounds (cell viability >90%))
28.7 | 32.3 | 37.8 | 24.5 |  |  | CCN(CC)c1ccc(NC(=O)c2csc([N+](=O)[O-])c2)cc1 [Compound 47u] | 105.56 | 102.26 | 97.2 | 88.36 | 7.78 | 6.19 | 2.98 | 1.83 | 
91.4 | 67.6 | 91.1 |  |  |  | CCN(CC)c1ccc(NC(=O)c2cnc(SC)n2-c2ccc(F)cc2)cc1 [Compound 47z] | 102.53 | 95.99 | 96.05 | 93 | 0.94 | 1.33 | -0.3 | -0.25 | 
87.2 | 101 | 118 | 93.6 | 99.9 | 86.9 | CC[N+](O)(CC)c1ccc(NC(=O)c2c(-c3ccccc3)noc2C)cc1 [SI4] | 104.81 | 107.68 | 104.23 | 95.62 | 3.36 | 1.95 | 1 | -1.21 | 
104 | 86.4 | 84.9 | 71.9 | 72.2 | 83.8 | Cc1onc(-c2ccccc2)c1C(=O)Nc1ccc(OCc2ccccc2)cc1 [SI8] | 105.45 | 102.65 | 100.93 | 59.22 | -0.14 | 2.05 | -0.31 | 1.97 | 
107 | 84.8 | 99.9 | 53.2 | 53.9 | 74.1 | CCN(CC)c1ccc(/C=N/c2c(-c3ccccc3)noc2C)c(O)c1 [SI44] | 105.22 | 100.5 | 90.69 | 89.22 | 2.83 | 1.4 | -0.96 | 0.36 | 
113 | 104 | 115 | 96.1 | 91.1 | 97.4 | CCCn1nnc(-c2ccccc2)c1C(=O)Nc1ccc(N(CC)CC)cc1 [SI65] | 101.13 | 112.84 | 109.58 | 105.89 | 2.51 | 1.17 | 1.55 | 2.48 | 
83.7 | 67.2 | 70.7 | 42.2 | 43 | 49.1 | CN(C)c1ccc(NCc2c[nH]nc2-c2ccc(F)cc2)cc1 [SI78] | 105.6 | 102.53 | 103.53 | 103.47 | 0.7 | 1 | -1.06 | -2.54 | 
92.7 | 98.9 | 88.7 | 92.2 | 71.4 | 78.5 | CCN(CC)c1ccc(NCc2c[nH]nc2-c2cc(F)cc(F)c2)cc1 [SI79] | 101.61 | 103.16 | 104.94 | 103.16 | 2.87 | 1.38 | -0.15 | -0.35 | 

The next lines start with the compound.

Structure (SMILES) | activity at 3 µM [2] [%] | activity at 3 µM [3] [%] | activity at 3 µM [4] [%] | activity at 10 µM [3] [%] | activity at 10 µM [4] [%] | activity at 10 µM [2] [%] | MTT.1µM (COS-1 cells [1]) | MTT.3µM (COS-1 cells [1]) | MTT.10µM (COS-1 cells [1]) | MTT.30µM (COS-1 cells [1]) | LDH.1µM (COS-1 cells [5]) | LDH.3µM (COS-1 cells [5]) | LDH.10µM (COS-1 cells [5]) | LDH.30µM (COS-1 cells [5]) | toxicity class in the MTT assay (COS-1 cells [1])
CCN(CC)c1ccc(NC(=O)c2cc(C)oc2-c2ccccc2)cc1 [Compound 54] | 72.4 | 46 | 60.8 | 35.4 |  |  | 97.73 | 83.61 | 74.16 | 71.09 | 1.02 | 0.88 | -0.26 | 3.27 | most toxic
CCN(c1ccc(NC(=O)c2c(C)noc2-c2ccccc2)cc1)C(C)C [Compound 63] | 68 | 41.6 | 69.7 |  |  |  | 99.16 | 82.83 | 75.83 | 61.58 | 0.04 | -1.53 | -2.08 | 0.01 | 
CC(=O)N(Cc1ccc(N(C)C)cc1)c1c(-c2ccccc2)noc1C [Compound 64] | 59.6 | 40.2 | 62.1 |  | 44.1 |  | 98.18 | 84.51 | 77.4 | 65.98 | 0.55 | -0.52 | -0.2 | -0.49 | 
CCN(CC)c1ccc(NC(=O)c2c(C)noc2-c2ccccc2)cc1 [Compound 65] | 90 | 51.9 | 53.5 |  |  | 64.2 | 96.79 | 83.46 | 81.39 | 84.64 | 0.39 | -0.82 | -1.85 | -0.07 | 
CCN(CC)c1ccc(NC(=O)c2c(-c3ccccc3)nnn2CCc2ccccc2)cc1 [Compound 71] | 72.5 | 75.2 | 76 | 33 | 33.6 |  | 103.27 | 98.93 | 94.48 | 80.74 | 0.03 | -0.62 | -0.76 | 1.31 | 
